{"source": "paper PMC9687990", "about": "“Identification, Characterization, and Expression of a β-Galactosidase from Arion Species (Mollusca)” (Biomolecules, 2022)", "molecules": {"B1": {"name": "recombinant β-galactosidase from A. vulgaris (β-gal) (Arion vulgaris) (protein)", "chain": "KMDANILLCCVIILTSFLQVNGNRTFEIDYANNTFLKDGVPFRYVSGSMHYSRVPPEYWKDRLLKMRAAGLNVVQGYVPWNVHELSPGEFFWEGASDLGQFLSLAQESNLSVLLRIGPYICGEWEFGGFPAWLLTEDPNMTLRTSNTSYLKWVDKWYTELLNKIKPYMYNNGGPVLMVQIENEYGSYFACDQVYLLFLRDKVRSILGNSTVIYTTDGDGDGYLKCGKVEGVYATVDFGVTYDPAGAFKSQRDFEPYGPLVNSEFYLGWLDHWGEPHSTTDATSVSKSLDLLLAYGANINMYMFVGGTNFGFYNGANSPPYQPVPTSYDYNAPISEAGDTTSKFIALRDIISKYLPLPHGRIPPDTNKTSYGTIHMEFVITVLDALQYLSPNGPVNTVYPVSMEKINFYFGFILYRFVLQKEYNTSTVLSVPGIRDRAVVMVNNVPIGIIDRVGNVSLTITGHAGQEVNILVENQGRIGYGSAMNSNTKGIVENVTLGGEIVTNWQIFPIHLENISSLTALTPKPSFRKPMKSADGKLMTPSIYVGDINIPDLPSQPQDTFLDPRPWGKGQAIVNNFNIGRYWPNRGPQVTLYIPQPLFNKPPTANKIYLFELESSPCFESSSQDKCSITLTDTPYLNGPNGPGIKNNLPSWYLDPKLHLVH"}}, "key": {"[1]": {"target": "T1, recombinant β-galactosidase from A. vulgaris (β-gal) (Arion vulgaris, UniProt A0A0B7AQJ9)", "T1 construct": "gene ORF136304", "T1 sequence (A0A0B7AQJ9 1-661)": "B1 chain", "experiment": "inhibition of pNP-β-Gal hydrolysis, colorimetric […] nm", "assay_type": "biochemical", "conditions": "pNP-β-Gal substrate, pH 4.5, 37 °C, 2 h; 12 mM galactose; product inhibition"}, "[2]": {"test_system": "T2, native β-galactosidase from A. lusitanicus", "T2 construct": "gene β-Gal", "experiment": "colorimetric p-nitrophenol release, […] nm", "assay_type": "biochemical, Arion vulgaris", "conditions": "pH 4.5 (Na citrate), 37 °C, 2 h; 0.2-12.5 mM substrate"}, "purified protein": {"substrate": "O=[N+]([O-])c1ccc(O[C@@H]2O[C@H](CO)[C@H](O)[C@H](O)[C@H]2O)cc1", "experiment": "purified protein", "conditions": "pH 4.5 (Na citrate), 37 °C, 2 h, 0.2-12.5 mM substrate"}}, "data": [{"molecule": "OC[C@H]1OC(O)[C@H](O)[C@@H](O)[C@H]1O", "note": "(stereo partly drawn) [galactose]", "values": [{"measurement": "% reduction of activity at 12 mM", "setting": "[1]", "result": "~ 40%"}]}, {"molecule": "O=[N+]([O-])c1ccc(O[C@@H]2O[C@H](CO)[C@H](O)[C@H](O)[C@H]2O)cc1", "note": "[pNP-β-Gal]", "values": [{"measurement": "Km", "setting": "[2]", "result": 8.3, "unit": "mM"}]}, {"molecule": "B1", "values": [{"measurement": "Km", "setting": "purified protein", "result": 3.2, "unit": "mM"}]}]}
